We go through 8 compounds from ChEMBL document CHEMBL2311494, “Syntheses and evaluation of the antioxidant activity of novel methoxypsoralen derivatives” (Eur J Med Chem, 2013).

The subject of data set [1] is Rattus norvegicus. Nature of the data set: Antiinflammatory activity in Fischer-344 rat assessed as inhibition of carrageenan-induced paw edema at 0.01 mmol/kg, ip after 3.5 hrs relative to control. Conditions: Fischer-344, ip. In kind it is functional. (In the carrageenan paw model, swelling and tenderness develop within hours.)
Data set [2] deals with Rattus norvegicus. Nature of the data set: Toxicity against Fischer-344 rat up to 0.1 mmol/kg, ip. The format is organism-based. Conditions: in vivo.
In data set [3] the test system is Radical scavenging activity. Kind of data set: Antioxidant activity assessed as DPPH radical scavenging activity at 100 uM after 60 mins by spectrophotometric analysis. The format is functional. (Loss of DPPH colour is used to gauge radical scavenging.)
Data set [4] can be described thus: Cytotoxicity against human 1BR3 cells assessed as cell viability at 100 uM after 24 hrs by MTT assay. The format is cell-based. Conditions: read-out: Activity. Background: Formazan colour is commonly taken as a measure of viable cells.
Data set [5] in a line: Cytotoxicity against human 1BR3 cells assessed as cell viability at 10 uM after 24 hrs by MTT assay. In kind it is cell-based. The following applies: read-out: Activity.
Data set [6] in a line: Inhibition of soybean LOX using sodium linoleate as substrate by spectrophotometric analysis. The arrangement: species or system Glycine max. The following applies: read-out: IC50.
The nature of data set [7]: Antioxidant activity assessed as inhibition of AAPH-induced linoleic acid lipid peroxidation at 100 uM by spectrophotometric analysis. In kind it is functional.
The subject of data set [8] is Radical scavenging activity. Kind of data set: Antioxidant activity assessed as DPPH radical scavenging activity at 100 uM after 20 mins by spectrophotometric analysis. In kind it is functional.
A short description of data set [9]: Cytotoxicity against human 1BR3 cells assessed as cell viability at 20 uM after 24 hrs by MTT assay. The format is cell-based. The following applies: read-out: Activity.
The nature of data set [10]: Cytotoxicity against human 1BR3 cells assessed as cell viability at 50 uM after 24 hrs by MTT assay. The format is cell-based. Conditions: read-out: Activity.
The nature of data set [11]: Cytotoxicity against human 1BR3 cells assessed as cell viability at 1 uM after 24 hrs by MTT assay. The format is cell-based. Conditions: read-out: Activity.
The subject of data set [12] is Glycine max. Kind of data set: Inhibition of soybean LOX using sodium linoleate as substrate at 100 uM by spectrophotometric analysis.

The structures appear in SMILES notation. Calls of active or inactive are those of the source. No cut-off for these calls is given here.

In general, inhibition in vivo refers to the share of the control response that was lost under treatment. By IC50 is commonly meant the concentration that inhibits the measured activity by half. The term inhibition denotes the relative decrease from the control value, in per cent.

For the compound `COc1ccc2c(c1)c(CC(=O)O)c(C)n2C(=O)c1ccc(Cl)cc1` [INDOMETHACIN], the inhibition in vivo at 10 µmol/kg in data set [1] was 47%. In addition, in data set [2], the Activity entry is “Non-toxic”.
For `COc1c2occc2c(-c2ccc(/C=C/C(=O)OC(C)(C)C)cc2)c2ccc(=O)oc12`, the inhibition in vivo at 10 µmol/kg in data set [1] is 26.2%. Moreover, the values for the Activity in [3], in data set [2] and in data set [8] were 18%, “Non-toxic” and 15%, respectively. Further, the viability at 24 h, 100 µM in data set [4] worked out at 46.3%. Further, the viability at 24 h, 10 µM in [5] turned out to be 74.1%. Moreover, in data set [6], the IC50 came out at 7.5 µM. The inhibition in data set [7] stood at 72%. Further, the viability at 24 h, 20 µM in [9] is 67.9%. Besides, the viability at 24 h, 50 µM in data set [10] worked out at 66.3%. Further, the viability at 24 h, 1 µM in data set [11] turned out to be 98.8%.
On to `Cc1oc2c(C)c3oc(=O)cc(C)c3cc2c1/C=C/C(=O)O`, for which the Activity in data set [3] was 11%; in [2] it was “Non-toxic”; in data set [8] it was 11%. The inhibition in data set [7] came out at 73%; in [12], 9%.
Regarding `Cc1oc2c(C)c3oc(=O)cc(C)c3cc2c1-c1ccc(/C=C/C(=O)OC(C)(C)C)cc1`, the outcome in [3] and in data set [8] was inactive. Also, the inhibition in data set [7] stood at 41%; in [12], 33%. Moreover, in [2], the Activity result was “Non-toxic”.
On to `Cc1oc2c(C)c3oc(=O)cc(C)c3cc2c1/C=C/C(=O)OC(C)(C)C`, for which the inhibition in vivo at 10 µmol/kg in data set [1] came out at 46%. For the same compound, the Activity is 11% in data set [3], “Non-toxic” in [2] and 11% in data set [8]. The viability at 24 h, 100 µM in [4] is 22.2%. Also, the viability at 24 h, 10 µM in data set [5] is 55.6%. In [6], the IC50 is 9.4 µM. Further, the inhibition in data set [7] is 80%. For the same compound, the viability at 24 h, 20 µM in [9] was 37%. For the same compound, the viability at 24 h, 50 µM in data set [10] was 34.6%. For the same compound, the viability at 24 h, 1 µM in data set [11] came out at 67.9%.
On to `Cc1oc2c(C)c3oc(=O)cc(C)c3cc2c1-c1ccc(/C=C/C(=O)O)cc1`, for which the outcome in data set [3] and in data set [8] was inactive. Moreover, the inhibition in data set [7] stood at 84%; in data set [12], 13%. The Activity entry in [2] is reported as “Non-toxic”.
`Cc1cc2cc3c(C)cc(=O)oc3c(C)c2o1` [TRIOXSALEN]: the outcome in data set [3] and in data set [8] was inactive. Further, the viability at 24 h, 100 µM in [4] worked out at 95.2%. Further, the viability at 24 h, 10 µM in [5] is 96.7%. Besides, in [7], the inhibition result is “inactive”. Moreover, the inhibition in [12] came to 40%. Further, the viability at 24 h, 20 µM in data set [9] turned out to be 95.2%. The viability at 24 h, 50 µM in data set [10] came to 92.2%. Further, the viability at 24 h, 1 µM in data set [11] worked out at 107%.
As to `CCCCOC(=O)/C=C/c1c2ccoc2c(OC)c2oc(=O)ccc12`, the inhibition in vivo at 10 µmol/kg in [1] was found to be 57%. The Activity in [3] is 7%; in data set [2], “Non-toxic”; in data set [8], 5%. The viability at 24 h, 100 µM in [4] worked out at 90.3%. Further, the viability at 24 h, 10 µM in data set [5] worked out at 99.3%. Also, the 50% inhibitory concentration (IC50) in data set [6] was 6 µM. Also, the inhibition in [7] was 79%. Moreover, the viability at 24 h, 20 µM in data set [9] amounted to 99.6%. Moreover, in [10], the viability at 24 h, 50 µM came out at 98.9%. Also, the viability at 24 h, 1 µM in data set [11] was 96.7%.
